According to BindingDB's records for patent US20250236619 (Chia Tai Tianqing Pharmaceutical Group Co., 2025):

Biological target: Mitogen-activated protein kinase kinase kinase kinase 1 (Homo sapiens, UniProt Q92918)
Experiment: Assay for In Vitro Inhibitory Activity Against HPK1 Kinase
Protocol: A kinase buffer (Enzymatic buffer 5×) was diluted to 1×, and 10 mM MgCl2, 1 mM DTT, and 0.005% Tween 20 were added. A 100 ng/μL HPK1 (Life technology) stock solution was diluted with the kinase buffer to obtain a 1.67×, 1.67 ng/μL working solution (final concentration: 1 ng/μL), and the working solution was seeded in a 384-well plate at 6 μL/well. Different compounds dissolved in DMSO were added to the wells using a nanoliter pipettor to obtain final concentrations of the compounds of 1000 nM to 0.244 nM (4-fold serial dilution, 7 concentrations in total), and blank control wells (without enzyme) and negative control wells (with enzyme, plus vehicle DMSO) were set; the wells were set in duplicate. After the enzyme and the compounds were incubated at room temperature for 1 h, a 5×, 5 mM ATP dilution (final concentration: 1 mM) in the kinase buffer was mixed with a 5×, […] (Cisbio, STK Substrate 1-biotin; final concentration: 500 nM) in equal volume, and the mixture was added to the plate at 4 µL/well. The plate was sealed with a film and then incubated at room temperature for 2 h. An assay antibody solution was prepared by mixing the antibody STK Antibody-cryptate (Cisbio, 5 μL/test) and a 4×, 500 nM Streptavidin-XL665 (Cisbio; final concentration: 125 nM) in equal volume and added to the plate at 10 μL/well. The plate was incubated at room temperature for 1 h. The signal values ([…]) were measured using a PE Envision multimode microplate reader, and IC50 was calculated by four-parameter fitting.

Mitogen-activated protein kinase kinase kinase kinase 1, sequence (Q92918 whole entry): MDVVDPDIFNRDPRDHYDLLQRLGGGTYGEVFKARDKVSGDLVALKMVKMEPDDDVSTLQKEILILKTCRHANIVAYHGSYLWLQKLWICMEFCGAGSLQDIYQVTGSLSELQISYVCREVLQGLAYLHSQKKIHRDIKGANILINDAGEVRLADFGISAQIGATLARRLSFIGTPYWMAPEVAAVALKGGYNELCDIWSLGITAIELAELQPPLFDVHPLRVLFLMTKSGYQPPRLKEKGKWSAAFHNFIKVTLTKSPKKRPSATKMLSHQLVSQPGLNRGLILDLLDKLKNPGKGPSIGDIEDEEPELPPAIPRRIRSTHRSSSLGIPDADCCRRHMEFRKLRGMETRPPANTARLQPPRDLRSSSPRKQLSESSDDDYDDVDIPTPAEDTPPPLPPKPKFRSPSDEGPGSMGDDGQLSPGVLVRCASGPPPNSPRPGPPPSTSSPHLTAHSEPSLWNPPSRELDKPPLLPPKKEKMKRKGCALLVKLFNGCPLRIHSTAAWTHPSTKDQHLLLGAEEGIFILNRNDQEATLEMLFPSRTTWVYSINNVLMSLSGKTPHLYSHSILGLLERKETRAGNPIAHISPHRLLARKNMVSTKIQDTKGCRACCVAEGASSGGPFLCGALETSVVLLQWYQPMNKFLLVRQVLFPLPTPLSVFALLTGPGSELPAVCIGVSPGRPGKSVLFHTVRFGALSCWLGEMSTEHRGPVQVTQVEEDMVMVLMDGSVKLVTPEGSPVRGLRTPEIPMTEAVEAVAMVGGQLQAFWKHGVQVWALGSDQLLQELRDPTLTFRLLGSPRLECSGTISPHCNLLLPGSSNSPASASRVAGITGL

Row | SMILES | IC50 [nM]
1 | [2H]C([2H])(c1nc(Nc2cnc(-c3ccnc4c3c3c(n4C)CCC3)c3c2C(=O)NC3)ccc1C1CCOCC1)N(C)C [US20250236619, Compound I-17] | 1.7
2 | CN(C)Cc1nc(Nc2ccc(-c3cnc4cnc5occc5n34)c3c2C(=O)NC3)ccc1C1CCOC1 (stereo not drawn) [US20250236619, Compound I-54] | 6.6
3 | CN(C)Cc1nc(Nc2ccc(-c3cnn4ccc5occc5c34)c3c2C(=O)NC3)ccc1N1CCN(C)C(=O)C1 [US20250236619, Compound I-76] | 1.8
4 | [2H]C([2H])(c1nc(Nc2ccc(-c3cnn4c3CC3(CC3)C4)c3c2C(=O)NC3)ccc1C1CCOCC1)N(C)C [US20250236619, Compound I-53] | 2.7
5 | CN(C)Cc1nc(Nc2ccc(-c3cnn4c3CC3(CC3)C4)c3c2C(=O)NC3)ccc1C1CCN(C)C(=O)C1 (stereo not drawn) [US20250236619, Compound I-67] | 4.6
6 | CN(C)Cc1nc(Nc2ccc(-c3cnn4ccc5occc5c34)c3c2C(=O)NC3)ccc1C1CC(=O)N(C)C1 (stereo not drawn) [US20250236619, Compound I-59] | 2.3
7 | CN(C)Cc1nc(Nc2ccc(-c3cnn4ccc5occc5c34)c3c2C(=O)NC3)ccc1-c1ccn(C)c(=O)c1 [US20250236619, Compound I-81] | 2
8 | CN(C)Cc1nc(Nc2ccc(-c3cnc4ccc5occc5n34)c3c2C(=O)NC3)ccc1N1CCCC1=O [US20250236619, Compound I-52] | 36
9 | CN(C)Cc1nc(Nc2ccc(-c3cnc4ccc5c(n34)CCO5)c3c2C(=O)NC3)ccc1C1CCOCC1 [US20250236619, Compound I-35] | 6.4
10 | O=C1NCc2c(-c3cnn4ccc5occc5c34)ccc(Nc3ccc(N4CCOCC4)c([C@H]4CCCN4)n3)c21 [US20250236619, Compound I-57] | 17
11 | CN(C)Cc1nc(Nc2ccc(-c3ccnc4c3c3c(n4C)CCC3)c3c2C(=O)NC3)ccc1C1CCN(C)C(=O)C1 (stereo not drawn) [US20250236619, Compound I-84] | 2.6
12 | CN(C)Cc1nc(Nc2cnc(-c3cnn4c3CC3(CC3)C4)c3c2C(=O)NC3)ccc1C1CCOCC1 [US20250236619, Compound I-55] | 15
13 | CN(C)Cc1nc(Nc2ccc(-c3cnc4cnc5occc5n34)c3c2C(=O)NC3)ccc1C1CCCO1 (stereo not drawn) [US20250236619, Compound I-65] | 21
14 | CN(C)Cc1nc(Nc2cnc(-c3nnc4ccc5c(n34)CCC5)c3c2C(=O)NC3)ccc1C1CCOCC1 [US20250236619, Compound I-25] | 32

Further compounds by falling IC50, results first:

Row | IC50 [nM] | SMILES
15 | 29 | CN(C)Cc1nc(Nc2ccc(-c3cnc4ccc5occc5n34)c3c2C(=O)NC3)ccc1N1CCN(C)C1=O [US20250236619, Compound I-50]
16 | 11 | CN(C)Cc1nc(Nc2ccc(-c3ncnc4[nH]c5c(c34)CCC5)c3c2C(=O)NC3)ccc1C1CCOCC1 [US20250236619, Compound I-24]
17 | 7.5 | CC(=O)N(C)c1ccc(Nc2ccc(-c3cnn4ccc5occc5c34)c3c2C(=O)NC3)nc1CN(C)C [US20250236619, Compound I-70]
18 | 5.6 | CN(C)Cc1nc(Nc2ccc(-c3cnc4cnc5occc5n34)c3c2C(=O)NC3)ccc1C1CC(=O)N(C)C1 (stereo not drawn) [US20250236619, Compound I-58]
19 | 4.7 | CN(C)Cc1nc(Nc2cnc(-c3cnn4ccc5occc5c34)c3c2C(=O)NC3)ccc1N1CCOCC1 [US20250236619, Compound I-47]
20 | 3.8 | CNCc1nc(Nc2ccc(-c3cnn4ccc5occc5c34)c3c2C(=O)NC3)sc1C1CCOCC1 [US20250236619, Compound I-85]
21 | 2.9 | CN(C)Cc1nc(Nc2ccc(-c3cnn4ccc5occc5c34)c3c2C(=O)NC3)ccc1C1CCCO1 (stereo not drawn) [US20250236619, Compound I-64]
22 | 2.8 | CN(C)Cc1nc(Nc2ccc(-c3cnc4cnc5occc5n34)c3c2C(=O)NC3)ccc1C1CCN(C)CC1 [US20250236619, Compound I-80]
23 | 2.6 | CN(C)Cc1nc(Nc2ccc(-c3cnc4cnc5occc5n34)c3c2C(=O)NC3)ccc1C1CCOCC1 [US20250236619, Compound I-48]
24 | 2.5 | CN(C)Cc1nc(Nc2ccc(-c3cnc4ccc5occc5n34)c3c2C(=O)NC3)ccc1C1CCN(C)C(=O)C1 (stereo not drawn) [US20250236619, Compound I-66]
25 | 2.1 | CN(C)Cc1nc(Nc2ccc(-c3cnn4c3CC3(CC3)C4)c3c2C(=O)NC3)ccc1C1CCOCC1 [US20250236619, Compound I-34]
26 | 2.1 | CN(C)Cc1nc(Nc2cnc(-c3cnn4ccc5occc5c34)c3c2C(=O)NC3)ccc1C1CCOCC1 [US20250236619, Compound I-46]
27 | 2 | CN(C)Cc1nc(Nc2ccc(-c3cnn4ccc5occc5c34)c3c2C(=O)NC3)ccc1C1CCN(C)CC1 [US20250236619, Compound I-83]
28 | 1.7 | CN(C)Cc1nc(Nc2ccc(-c3cnn4ccc5occc5c34)c3c2C(=O)NC3)ccc1C1CCOCC1 [US20250236619, Compound I-38]
